Like-named read-outs stand apart in the source and are kept apart here. Marks after values point to notes of the source that are not given here.
Experiments:
[1] = test system: cytosolic phospholipase B (PLB activity); assay: Radiometric assay, cytosolic PLB activity; assay type: biochemical, Cryptococcus neoformans H99; settings: pH 4
Description: Fungal isolates and media. […] Isolate H99 was kindly supplied by Dr. Gary Cox (Duke University Medical Center, Durham, N.C., USA), and subcultured onto Sabouraud dextrose agar (SDA) at 30° C.
Cellular disruption to prepare membrane and cytosolic fractions. The cell pellet from the preparation of the supernatant, above, was also frozen at −70° C. After washing twice with imidazole buffer, it was disrupted in the presence of a protease inhibitor cocktail (P 8215 for fungal and yeast cells; 4-(2-aminoethyl)benzenesulfonyl fluoride hydrochloride, 100 mM, 1,10-phenanthroline, 500 mM, pepstatin A, 2.2 mM, E-64, 1.4 mM; Sigma) in a MiniBeadbeater-8 Cell Disrupter (MBB-8; Daintree Scientific, Tasmania, Australia) for three cycles of 1 min, alternating with a 1 min cooling period on ice. The homogenate was centrifuged at 14,000 g for 15 min to obtain the membrane (pellet) and the cytosolic (supernatant) fractions.
Radiometric assay method for phospholipases. Enzyme activities were measured as described previously in a final volume of 125 μL at 37° C. For the determination of secreted PLB activity, carrier dipalmitoyl phosphatidylcholine (DPPC, final concentration 800 μM) and 1,2-di[1-^14C] palmitoyl phosphatidylcholine (20,000 dpm) were dried under nitrogen and suspended in 125 mM imidazole acetate buffer (assay buffer, pH 4.0) by sonication using a Branson 450 sonifier. The reaction time was 22 min, using 1 μg total protein and PLB activity was determined by the rate of decrease of the radiolabelled PC substrate, with appearance of the label in free fatty acid. This assay also simultaneously allows for the determination of phospholipase A, C and D activities. These activities were measured by the appearance of radiolabel from PC in Lyso PC, diacylglycerol and phosphatidic acid, respectively.
All reactions were terminated by adding 0.5 mL of chloroform:methanol (2:1 v/v). The reaction products were extracted by the method as disclosed in Bligh, E. C. and W. J. Dyer. 1959 ‘A rapid method of total lipid extraction and purification.’ Can. J. Biochem. Physiol. 37:911-917, separated by TLC and quantified as previously described. In the case of PLC activity, the TLC plates were developed in petroleum ether (BP 60-80° C.): diethyl ether: acetic acid (90:15:1, v/v/v) instead of chloroform:methanol:water (65:25:4, v/v/v).
All experiments were carried out in duplicate or triplicate. The effects of pH on the various phospholipase activities were measured using 50 mM final concentration of imidazole-acetate buffer (pH range 3-5), MES buffer (pH range 6-8) and glycine buffer (pH 9-10). Controls for non-enzymic breakdown of substrates were included at all pH values. Cations, Triton X-100 and metal chelators were made up as stock solutions in water and diluted to the final concentration in the appropriate assay buffer.
Preparation of inhibitors and use in assays. The following compounds were tested (for structures, see FIG. 2): compound 1, 1,12-bis(tributylphosphonium)dodecane dibromide (Fluka AG, Buchs, Switzerland); compound 2, 1,10-bis(tributylammonium)-decane dibromide; compound 3, 1,12-bis(tributylammonium)do-decane dibromide (both synthesised in-house); compound 4, 1,10-bis(trimethylammonium)decane dibromide [“decamethonium”] (Sigma, St. Louis Mo., USA). All compounds were prepared as stock solutions of 700 μM in assay buffer containing 5 mM EDTA, which was then diluted serially with buffer to obtain solutions of 70, 7, 0.7 and 0.07 μM. In each assay, 45 μL of these solutions was used, and the final volume of 125 μL was made up of substrate, enzyme and buffer. The radiometric assay was carried out as above.

T. mentagrophytes = assay: Susceptibility of dermatophytes, broth microdilution NCCLS M38-P; assay type: cell-based; settings: 100% growth inhibition, 28° C.; for MIC: Trichophyton mentagrophytes
Description: Isolates were tested using the method described in the National Committee for Clinical Laboratory Standards (NCCLS) document M38-P for filamentous fungi, with dermatophyte specific modifications described by Fernández-Torres et al, Current topics in Medical Mycology, 14-19 Feb. 1999.
Five dermatophyte isolates were, namely; T. rubrum, T. mentagrophytes, T. tonsurans, M. canis and M. gypseum, all of which produce lipases and some, phospholipase. These isolates were tested by the broth microdilution method according to NCCLS document M38-P, for activity against selected antifungal agents. In addition, ten randomly selected isolates of T. tonsurans were also tested. All isolates were maintained on SDA at 28° C. Candida parapsilosis (ATCC 20019) was used as the reference control is organism.
The microdilution plates used were a single lot of RPMI 1640 basal medium (JRH bioScience Inc. Lenexa, Kans., USA) with L-glutamine and without sodium bicarbonate, buffered to pH 7.0, at 25° C., with 0.165 M (MOPS) morpholinepropanesulfonic acid (Sigma).
Powdered drugs were dissolved in 100% dimethyl sulfoxide (DMSO), at concentrations 100 times higher than the final test concentration. All compounds were prepared in 100% (DMSO). For ITRA and TRB, two-fold drug dilutions were prepared in 100% DMSO at 100 times the final concentration, followed by further dilution 1:50 in RPMI medium, to yield 2× the final strength required for the test.
Fungal cultures were subcultured onto Potato Dextrose Agar and grown at 28° C. for 7-10 days. Fungal suspensions were covered with 5 ml of distilled water, and then colonies were scraped off with cotton tipped swabs. The resulting mixture of conidia and hyphae elements was withdrawn, transferred to a sterile tube and then vortexed with glass beads. After the particles settled, the upper homogeneous suspension was collected and its density adjusted by a densitometer to a 0.5 McFarland standard at the wavelength of 530 nm (80-85% transmittance). These stock suspensions were then diluted 1:50 with RPMI medium to obtain final working inoculum concentration ranging from 0.3×10^4 to 9×10^4 CFU/ml. Inoculum quantification was performed by plating 100 μl of the 1:1000 dilution of the adjusted inoculum on SDA plates, incubated at 28° C., and after 7 days of incubation, the colonies were counted.
Testing was based on NCCLS M38-P document for testing filamentous moulds. Testing was carried out in sterile 96-well flat bottomed microtitre plate. Columns 1 and 3 to 12 were filled with 100 μl of RPMI medium, leaving column 2 unfilled. Columns 1, 2 and 3 were filled with 100 μl of 2× drug concentration. Serial dilutions were then made by transferring 100 μl from column 3 to each column up to column 11, and 100 μl from column 11 was discarded. Column 12 served as drug free growth control. Finally, 100 μl of inoculum suspension was added to all wells except column 1, which acted as sterility control (Columns 1 and 12 served as sterility and growth control respectively). Plates were incubated at 28° C. for 7 days, and read at 3 days and 7 days of incubation. All testing was performed in duplicate, on three separate occasions.
Growth in microtitre trays were read by visual inspection by using an illuminated-reversed mirror. Growth in each well was compared with the “growth control” drug free well. The MIC end point for all the drugs was chosen to be the first well with 100% growth inhibition (i.e. the lowest drug concentration inhibiting growth).

Structure (SMILES) | % Inhibition PLB, Cytosolic Enzyme ([1]; 2.5 μM) [%] | % Inhibition PLB, Cytosolic Enzyme ([1]; 25 μM) [%] | % Inhibition PLB, Cytosolic Enzyme ([1]; 250 μM) | MIC Range, T. mentagrophyte (T. mentagrophytes) [µg/mL] | MIC (T. mentagrophytes; read-out: MIC GM, T. mentagrophyte) [µg/mL] | MIC (T. mentagrophytes; read-out: MIC Mean, T. mentagrophyte) [µg/mL]
CCCC[P+](CCCC)(CCCC)CCCCCCCCCCCC[P+](CCCC)(CCCC)CCCC [Compound 1, 1,12-bis(tributylphosphonium)dodecane dibromide] | 0 | 0 | 41.3* % |  |  | 
CCCC[N+](CCCC)(CCCC)CCCCCCCCCCCC[N+](CCCC)(CCCC)CCCC [Compound 3, 1,12-bis(tributylammonium)do-decane dibromide] |  |  |  | 3.8 | 3.8 | 3.8

— patent US7947854B2, “Bis-cationic compounds and use thereof” (The University of Sydney, priority 2003, dated 2011)
